Values of other authors as cited in patent US20230263806A1, “METHODS OF TREATING PROTEINOPATHIES” (Woolsey Pharmaceuticals, Inc., priority 2020, published 2023).
Where a name gives a salt, the structure may show the parent alone.

How the values were obtained:
[1] = tested on: triple transgenic Mice; settings: 10 or 12 months of age; administered in water at 30 mg/kg and 100 mg/kg
[2] = tested on: triple transgenic mouse model (APP Swedish, MAPT P301L, and PSEN1 M146V); settings: 10 mg/kg/day intraperitoneally (57 mg HED)
[3] = target: p38 mitogen-activated protein kinase (Homo sapiens, UniProt Q16539)
p38 mitogen-activated protein kinase, sequence (Q16539 2-360 limits assumed): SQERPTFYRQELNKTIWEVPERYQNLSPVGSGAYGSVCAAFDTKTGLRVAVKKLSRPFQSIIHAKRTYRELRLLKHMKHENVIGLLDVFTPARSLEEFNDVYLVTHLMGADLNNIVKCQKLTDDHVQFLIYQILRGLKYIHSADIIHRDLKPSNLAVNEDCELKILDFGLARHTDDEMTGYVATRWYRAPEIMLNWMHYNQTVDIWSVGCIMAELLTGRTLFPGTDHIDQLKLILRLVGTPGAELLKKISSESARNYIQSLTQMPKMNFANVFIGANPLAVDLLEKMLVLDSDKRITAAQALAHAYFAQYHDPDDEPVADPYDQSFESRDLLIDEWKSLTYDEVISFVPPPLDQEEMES

[4] = 1-hydroxy (M3) metabolite, in vivo

In the case of `O=S(=O)(c1cccc2cnccc12)N1CCCNCC1` [fasudil, Hexahydro-1-(5-isoquinolinesulfonyl)-1H-1,4-diazepine Monohydrochloride Hemihydrate], the spatial memory [1] is given as “did not observe improvements in spatial memory” and the “amyloid plaques in vivo” value [2] is given as “reduce 1 amyloid plaques”.
For `O=c1ncn2nc(Sc3ccc(F)cc3F)ccc2c1-c1c(Cl)cccc1Cl` [Neflamapimod], the “primary endpoint of improving episodic memory” value ([3]; Phase 2) is given as “failed”, the “tau in the cerebrospinal fluid” value ([3]; Phase 2) is given as “reducing tau” and the Aβ deposition ([3]; humans) is given as “no effect”.
In the case of `O=S(=O)(c1cccc2c(O)nccc12)N1CCCNCC1` [M3], the half-life [4] is given as “about 8 hours”.
